SMILES strings stand for the structures.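 A five-concentration, 48-hour dose response in 96-well plates underlies each endpoint, interpolated linearly between surrounding concentrations. GI50 = concentration required for 50% inhibition of growth.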 The source made the active and inactive calls. No stated cut-off is given here; in the data, active = GI50 up to about 1.1 µM and inactive = higher.

Here are results for 34 compounds from ChEMBL document CHEMBL1201862, “PubChem BioAssay data set” (2004).

The test system of this test is BT-549. In words: growth of human tumour cells (NCI), 48 h.

With `CN(C)CCNc1ccccn1`, the GI50 was > 100 µM (inactive).

Take `COc1cccc(C2c3cc4c(cc3OC(N3CCCC3)C2C)OCO4)c1O` (centres undefined): the GI50 is 3.79 µM (inactive). With `COc1ccc(/C=C/c2ccnc3ccccc23)c(OC)c1`, the GI50 is 7.18 µM (inactive).

As for `N=C(N)N/N=C/c1c(-c2ccc(N)cc2)nc2sccn12`, the GI50 was 35.5 µM (inactive).

Regarding `Cc1cc(=O)oc2c(CN(CCCl)CCCl)c(O)ccc12`, the GI50 was 21.1 µM (inactive).

As for `Cc1ccc(-c2ccc3c(c2)Sc2ccccc2O3)n1C`, the GI50 is 3.29 µM (inactive). As for `CN1CN(c2ccccc2)C2(CCN(CC(C)(c3ccc(F)cc3)C3OCCCO3)CC2)C1=O` (centres undefined), the GI50 is 5.31 µM (inactive).

As to `CCN1CN(c2ccccc2)C2(CCN(CCCSc3ccc(F)cc3)CC2)C1=O`, the GI50 is 8.61 µM (inactive).

For `Cc1c2c(n(C)c1C)C(=O)C1C(C2=O)C2(C)c3ccccc3C1(C)c1ccccc12` (centres undefined), the GI50 was > 100 µM (inactive). For `C=CCSC(C)=O` the value was > 100 µM (inactive); for `O=C1C[C@@H](c2ccc(O)cc2)[C@@]2(O1)C(=O)O[C@H]([C@@H](O)CO)[C@@H]2O`, > 100 µM (inactive); for `Brc1ccc2c(-c3nc(-c4c[nH]c5ccc(Br)cc45)cs3)c[nH]c2c1`, 13.3 µM (inactive). As for `CC(=O)OC/C=C(\C)CCC(Br)C(C)(C)Br` (centres undefined), the GI50 was > 10 µM (inactive). For `CC(=O)OCC1OC(SC2=NC(=O)/C(=C/c3ccccc3)S2)C(OC(C)=O)C(OC(C)=O)C1OC(C)=O` (centres undefined), the GI50 was 28.4 µM (inactive). As for `O=C(O)C#Cc1ccc([N+](=O)[O-])cc1`, the GI50 is > 100 µM (inactive).

On to `CN(C)c1ccc(/C=C2\C[C@H]3[C@@H]4CC=C5C[C@@H](O)CC[C@]5(C)[C@H]4CC[C@]3(C)[C@H]2O)cc1`, for which the GI50 is 21 µM (inactive). As for `Cn1cnc(C(N)=[Se])c1N`, the figure is 1.13 µM (inactive); as for `CCOC1(OCC)N=C(N)C2(C#N)C3(C(=O)N(C(C)C)N=C3C)C12C#N` (centres undefined), > 100 µM (inactive). As for `O=S(=O)(O)c1ccc(/N=N/c2ccc(/N=N/c3c(O)ccc4ccc(S(=O)(=O)O)cc34)cc2)cc1`, the figure is > 100 µM (inactive); as for `O=c1cc(/C=C/c2ccc(O)c(O)c2)oc(/C=C/c2ccc(O)c(O)c2)c1`, 4.8 µM (inactive). On to `O=Cc1ccc(-c2nccc3c2[nH]c2ccccc23)o1`, for which the GI50 was > 100 µM (inactive). As for `Clc1cccc(/C=N/C23CC4CC(CC(C4)C2)C3)c1Cl`, the figure is > 10 µM (inactive). In the case of `CC(C)=NNC1=NC(C)(C)P(=O)(NNc2ncccn2)S1` (centres undefined), the GI50 was > 100 µM (inactive). For `COC(=O)[C@H]1ON2O[C@H](OC3CCCC[C@@H]3c3ccccc3)C[C@@H]3CC[C@H]1[C@@]32C` (some centres undefined) the value was > 100 µM (inactive).

As to `CCOC(=O)CCC(NC(=O)c1ccc(Oc2nc3c(N)cc(C(F)(F)F)cc3nc2-c2ccccc2)cc1)C(=O)OCC` (centres undefined), the GI50 was > 50.6 µM (inactive). As for `N#Cc1nc(-c2ccccn2)oc1N`, the figure is > 100 µM (inactive); as for `C=C(C)[C@H]1C=C[C@@H](OC(=O)c2cccnc2)[C@@]23CO[C@@](C)([C@H](OC(=O)c4cccnc4)[C@@]4(OC(C)=O)C[C@H](C)[C@H](OCCC)[C@@H]4[C@H]2OC(C)=O)[C@H]13`, > 15 µM (inactive). For `CC(=O)NC1C(OCc2ccccc2)OC(CO)C(O)C1OC(C)C(=O)NC(C)C(=O)NC(CCC(=O)NCCCCNc1c2ccccc2nc2cccc([N+](=O)[O-])c12)C(N)=O` (centres undefined) the value was 0.196 µM (active); for `Cn1c(N2CCCC2)c(C=O)c(=O)n(C)c1=O`, > 100 µM (inactive).

In the case of `NNC(=O)CCCCCCCC(=O)O`, the GI50 is > 100 µM (inactive). Turning to `CO[C@@H]1C=C[C@@]23c4cc5c(cc4C(O)N(CC2O)C3C1)OCO5` (some centres undefined), the GI50 was 2.98 µM (inactive). For the compound `Cn1c(=O)c2c(ncn2CCCCOc2ccc3c(c2)[n+]([O-])nc(N)[n+]3[O-])n(C)c1=O`, the GI50 was 12.9 µM (inactive). As for `CN(C)CCn1c(=O)c2ccc(NCCNCCO)c3c(=O)c4ccccc4n(c1=O)c23`, the figure is 1.21 µM (inactive); as for `COc1ccc(Nc2nc(N)c(C(=O)c3ccccc3)s2)cc1`, 1.33 µM (inactive).
